Laboratory results published in patent publication US11103511B2, “Substituted indolo[2,1-b]quinazolines as inhibitors of tryptophan dioxygenase and indoleamine 2,3-dioxygenase 1” (FUDAN UNIVERSITY, priority 2017, dated 2021).

Assays:
IDO2 [1] = biological target: T1, IDO2 (Homo sapiens, UniProt Q6ZQW0); test: Half effective inhibitory concentration IC50 (cell) of IDO2, transfected U87 MG cells; type: cell-based; details: U87 MG cells transfected with pcDNA3.1(+)-IDO2, 24 h; read-out: IC50 Cellular IDO2
T1 construct: made in house
T1 sequence (Q6ZQW0 1-407): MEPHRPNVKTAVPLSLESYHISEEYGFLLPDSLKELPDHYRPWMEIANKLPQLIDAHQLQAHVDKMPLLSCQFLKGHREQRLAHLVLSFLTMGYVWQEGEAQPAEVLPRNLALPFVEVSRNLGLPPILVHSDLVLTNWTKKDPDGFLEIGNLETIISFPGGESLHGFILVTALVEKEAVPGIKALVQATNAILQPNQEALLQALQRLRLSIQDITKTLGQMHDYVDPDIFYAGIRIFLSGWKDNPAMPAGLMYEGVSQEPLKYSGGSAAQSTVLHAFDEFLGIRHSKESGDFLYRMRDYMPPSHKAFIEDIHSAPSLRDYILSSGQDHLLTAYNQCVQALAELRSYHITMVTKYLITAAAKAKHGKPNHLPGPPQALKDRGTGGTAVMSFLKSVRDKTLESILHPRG
Description: The nucleotide sequences of IDO1, IDO2, and TDO have been disclosed. […] U87 MG cell line (ATCC No.: HTB-14) was cultured in DMEM high-sugar medium containing 10% fetal bovine serum in a 37° C., 5% CO2 incubator. The cells were blown evenly into 6-well plate, and transfected when the cells grew to 80%-90% fusion. […] The cells were cultured in 37° C., 5% CO2 incubator for 6 h, and the medium was changed into DMEM medium containing 10% serum after adherence. […] Test compounds (including compounds of the present invention, […] and D-1-MT) at different concentration gradients were added and the total volume of each well was supplemented to 200 μl with cell culture medium containing L-tryptophan (200 μM of final concentration, sterilized by filtration). After incubated for 24 h, 140 μL of supernatant was taken into another 96-well plate, 10 μL of 30% (w/v) trichloroacetic acid was added, heated at 65° C. for 15 min, and centrifuged at 13800×g for 5 minutes. […] The experimental grouping was pcDNA3.1 (+)-IDO2 transfected group (experimental group), pcDNA3.1 (+) transfected group (empty plasmid control group), and non-transfected group (blank control group). Each group had three repeated well. The inhibitory rate was plotted against the inhibitor concentration, and the IC50 value was calculated by modified Karber method.

IDO2 [2] = biological target: T1, IDO2; test: Determination of IDO2 inhibitor type and Ki value; type: biochemical; details: [S]/V~[i] map, L-tryptophan 20-40 mM
Description: (§1) The nucleotide sequences of IDO1, IDO2, and TDO have been disclosed.
After the mixed solution was in water bath at 37° C. for 5 min, 10 μL of IDO2 (about 1 μM) was added to mixed solution and reacted at 37° C. for 30 min. After the enzymatic reaction was completed, 200 μL of 30% (w/v) trichloroacetic acid was added to terminate the reaction. Then the reaction mixture was heated in 65° C. water bath for 15 min to make the reaction product transform from N-formyl-kynurenine to kynurenine, and centrifuged at […] for 10 min. 100 μL of supernatant was draw and mixed with equal volume of 2‰ (w/v) p-dimethylaminobenzaldehyde in acetic acid completely. […] The inhibitor type was determined by Dixon mapping method (1/v˜[i]); the Ki value of inhibitor was obtained by [S]/V˜[i] map.

hTDO [3] = biological target: T2, hTDO (Homo sapiens, UniProt P48775); test: Half effective inhibitory concentration IC50 (enzyme level) of TDO; type: biochemical; details: pH 7.0, NI means of no inhibitory activity, read-out: IC50 enzymatic TDO
T2 construct: made in house
T2 sequence (P48775 whole entry): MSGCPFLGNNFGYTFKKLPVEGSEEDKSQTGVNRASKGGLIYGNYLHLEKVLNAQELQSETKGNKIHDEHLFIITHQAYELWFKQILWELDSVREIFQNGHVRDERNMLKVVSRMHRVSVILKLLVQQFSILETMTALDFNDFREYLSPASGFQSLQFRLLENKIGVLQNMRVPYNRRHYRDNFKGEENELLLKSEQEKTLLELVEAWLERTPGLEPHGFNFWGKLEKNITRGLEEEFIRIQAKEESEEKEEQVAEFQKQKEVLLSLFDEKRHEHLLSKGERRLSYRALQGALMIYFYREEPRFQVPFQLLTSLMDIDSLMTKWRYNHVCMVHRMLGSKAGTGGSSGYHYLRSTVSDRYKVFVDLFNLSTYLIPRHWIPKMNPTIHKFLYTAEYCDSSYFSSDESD
Description: The nucleotide sequences of IDO1, IDO2, and TDO have been disclosed. The active IDO1, IDO2, and TDO in the Examples are human IDO1, IDO2, and TDO, and can be prepared by conventional molecular cloning methods.
In a 500 μL of standard detection system, 50 mmol/L potassium phosphate buffer (pH 7.0), 200 μg/mL catalase, 40 mmol/L ascorbic acid, 20 μmol/L methylene blue, substrate L-tryptophan with suitable concentration and hTDO inhibitors to be tested were mixed. After the mixed solution was warmed in water bath at 37° C. for 5 min, hTDO was added to react at 37° C. for 30 min. After the enzymatic reaction was completed, […] (w/v) trichloroacetic acid was added to terminate the reaction. Then the reaction mixture was heated in a 65° C. water bath for 15 min to make the reaction product transform from N-formyl-kynurenine to kynurenine, and centrifuged at […] for 10 min. 100 μL of supernatant was draw and mixed with equal volume of 2‰ (w/v) p-dimethylaminobenzaldehyde in acetic acid completely. The kynurenine can reacted with the solution and turned the mixed solution to yellow, and the absorbance was measured at 492 nm by microplate reader. The inhibitory rate was plotted against the inhibitor concentration, and the IC50 value was calculated by modified Karber method, the experimental results were shown in Table 1.

hTDO [4] = biological target: T2, hTDO; test: Half effective inhibitory concentration IC50 (cell) of TDO, transfected HEK293 cells; type: cell-based; details: HEK293 cells transfected with pcDNA3.1(+)-hTDO, 5 h; NI means of no inhibitory activity; read-out: IC50 Cellular TDO
Description: The nucleotide sequences of IDO1, IDO2, and TDO have been disclosed. The active IDO1, IDO2, and TDO in the Examples are human IDO1, IDO2, and TDO, and can be prepared by conventional molecular cloning methods. HEK293 cell line was cultured in DMEM high-sugar medium containing 10% fetal bovine serum in a 37° C., 5% CO2 incubator. The cells were blown evenly into 6-well plates, and transfected when the cells grew to 80%-90% fusion. The operation was carried out according to the instructions of Lipofectamine 2000 while improved slightly: the serum-containing medium was draw out and the cells were washed twice with PBS, and 1500 μL of serum-free medium was added to each well. […] The cells were cultured in 37° C., 5% CO2 incubator for 4-6 h, and then the medium was changed into DMEM medium containing 10% serum. […] Test compounds (including compounds of the present invention, […] and INCB023460) at different concentration gradients were added and the total volume of each well was supplemented to 200 μl with cell culture medium. After incubated for 5 h, 140 μL of supernatant was taken into another 96-well plate, 10 μL of 30% (w/v) trichloroacetic acid was added, heated at 65° C. for 15 min, and centrifuged at 13800×g for 5 minutes. 100 μL of supernatant was mixed with equal volume of 2‰ (w/v) […] acetic acid solution, the absorbance was measured at 492 nm by microplate reader after fully mixing. The experimental grouping was pcDNA3.1 (+)-hTDO transfected group (experimental group), pcDNA3.1 (+) transfected group (plasmid-empty control group), and non-transfected group (blank control group). Each group had three repeated well. The inhibitory rate was plotted against the inhibitor concentration, and the IC50 value was calculated by modified Karber method, the experimental results were shown in Table 1.

IDO2 [5] = biological target: T1, IDO2; test: Half effective inhibitory concentration IC50 (enzyme level) of IDO2; type: biochemical; details: human IDO2, pH 7.5, read-out: IC50 enzymatic IDO2
Description: After the mixed solution was in water bath at 37° C. for 5 min, IDO2 was added to mixed solution and reacted at 37° C. for 30 min. After the enzymatic reaction was completed, 200 μL of 30% (w/v) trichloroacetic acid was added to terminate the reaction. Then the reaction mixture was heated in a 65° C. water bath for 15 min to make the reaction product transform from N-formyl-kynurenine to kynurenine, and centrifuged at […] for 10 min. 100 μL of supernatant was draw and mixed with equal volume of 2‰ (w/v) p-dimethylaminobenzaldehyde in acetic acid completely.

IDO1 [6] = biological target: T3, IDO1 (Homo sapiens, UniProt P14902); test: Cellular IC50 of IDO1; type: cell-based
T3 sequence (P14902 whole entry): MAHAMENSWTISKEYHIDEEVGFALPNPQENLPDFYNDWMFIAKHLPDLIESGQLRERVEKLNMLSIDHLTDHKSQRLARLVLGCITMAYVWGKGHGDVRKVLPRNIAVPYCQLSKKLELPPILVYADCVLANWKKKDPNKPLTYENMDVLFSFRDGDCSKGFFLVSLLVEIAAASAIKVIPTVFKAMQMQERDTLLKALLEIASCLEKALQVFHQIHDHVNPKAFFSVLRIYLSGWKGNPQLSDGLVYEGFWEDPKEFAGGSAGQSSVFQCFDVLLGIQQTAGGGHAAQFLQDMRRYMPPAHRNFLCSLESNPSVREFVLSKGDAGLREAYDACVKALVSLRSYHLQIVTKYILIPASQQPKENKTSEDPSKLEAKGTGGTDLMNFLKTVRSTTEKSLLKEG
Excerpt: as §1
(§2) The IC50 test of IDO1 can be performed with reference to existing methods in the art, such as the method described in Chinese Patent NO.

IDO1 [7] = biological target: T3, IDO1; test: IC50 (enzyme level) of IDO1; type: biochemical; details: read-out: IC50 enzymatic IDO1
Excerpt: as §1, §2

IDO1 [8] = biological target: T3, IDO1; test: Ki value of IDO1; type: biochemical
Excerpt: as §1, §2

[9] = cellular, read-out: IC50 Cellular IDO1

Row | IC50 (IDO2 [1]) [µM] | Ki (IDO2 [2]) [µM] | IC50 (hTDO [3]) [µM] | IC50 (hTDO [4]) [µM] | IC50 (IDO2 [5]) [µM] | IC50 (IDO1 [6]; [9]) [µM] | IC50 (IDO1 [7]) [µM] | Ki (IDO1 [8]) [µM] | SMILES | IC50 (IDO1 [6]) [µM]
1 | 48.1 | – | 46.6 | 0.688 | 98 | 0.278 | 45.2 | 103 | O=C1c2cc(Cn3cc(-c4ccccc4)nn3)ccc2-n2c1nc1ccccc1c2=O [3a] | –
2 | 50.1 | – | 81.8 | 1.37 | 99.6 | 0.335 | 50 | 96.3 | O=C1c2cc(Cn3cc(-c4ccccc4)nn3)ccc2-n2c1nc1ccc(F)cc1c2=O [3b] | –
3 | 41.7 | – | 40 | 0.197 | 83 | 0.185 | 39.1 | 63.3 | O=C1c2cc(F)ccc2-n2c1nc1ccc(Cn3cc(-c4ccccc4)nn3)cc1c2=O [3c] | –
4 | 68.4 | – | 88.7 | 1.44 | 134 | 0.547 | 82.6 | 98.1 | Cc1ccc2nc3n(c(=O)c2c1)-c1ccc(Cn2cc(-c4ccccc4)nn2)cc1C3=O [3d, 8-(4-phenyl-1H-1,2,3-triazol-1-methylene) -2-methyltryptanthrin] | –
5 | 51.2 | – | 44.6 | 0.715 | 102 | 0.201 | 41.1 | – | O=C1c2cc(Cn3cc(-c4ccccc4)nn3)ccc2-n2c1nc1ccc(Br)cc1c2=O [3e, 8-(4-phenyl-1H-1,2,3-triazol-1-methylene) -2-bromotryptanthrin] | –
6 | 65.1 | – | 50.1 | 0.713 | 125 | 0.245 | 42.2 | – | O=C1c2cc(Cn3cc(-c4ccccc4)nn3)ccc2-n2c1nc1ccc(Cl)cc1c2=O [3f, 8-(4-phenyl-1H-1,2,3-triazol-1-methylene) -2-chlorotryptanthrin] | –

The next lines start with the compound.

Row | SMILES | IC50 (IDO2 [1]) [µM] | Ki (IDO2 [2]) [µM] | IC50 (hTDO [3]) [µM] | IC50 (hTDO [4]) [µM] | IC50 (IDO2 [5]) [µM] | IC50 (IDO1 [6]; [9]) [µM] | IC50 (IDO1 [7]) [µM] | Ki (IDO1 [8]) [µM] | IC50 (IDO1 [6]) [µM]
7 | CN1CCN(Cc2ccc3nc4n(c(=O)c3c2)-c2ccc(F)cc2C4=O)CC1 [1a] | 18.7 | 6.32 | 0.76 | 0.093 | 18.4 | – | – | – | 0.022
8 | O=C1c2cc(F)ccc2-n2c1nc1ccc(CN3CCNCC3)cc1c2=O [1b] | 3.58 | 1.96 | 0.87 | 0.092 | 31.4 | – | – | – | –
9 | CC(C)(C)OC(=O)N1CCN(Cc2ccc3nc4n(c(=O)c3c2)-c2ccc(F)cc2C4=O)CC1 [1c] | 8.05 | 6.11 | 0.45 | 0.067 | 62.6 | – | – | – | 0.133
10 | CN1CCN(Cc2ccc3nc4n(c(=O)c3c2)-c2ccccc2C4=O)CC1 [1d] | 23.3 | 8.85 | 2.41 | 0.184 | 46.9 | 0.177 | – | – | –
11 | CN(C)Cc1ccc2nc3n(c(=O)c2c1)-c1ccc(F)cc1C3=O [1e] | 3.81 | 4.32 | 0.41 | 0.063 | 14 | – | – | – | –
12 | O=C1c2cc(F)ccc2-n2c1nc1ccc(CN3CCOCC3)cc1c2=O [1f] | 16.5 | 17.5 | 0.87 | 0.071 | 39.6 | – | – | – | –
